The molecules below were run against BlaR (Staphylococcus aureus, UniProt P18357) (assay: Live-cell fluorescent assay for BlaR inhibition (Venus reporter)). Conditions: compound at 100 mg/L^−1; CBAP 10 mg·L^−1; fluorescence after 2 h.
Assay type: cell-based, S. aureus NRS144pCN52RI-Venus
Source text: Live-Cell Fluorescent Assay in Discovery and Mechanism of Action. We conceived of fluorescent constructs in the bla operon, for the purpose of screening (FIG. 2a). We removed the gene for the β-lactamase (blaZ) and put in its place individually the genes for the Green Fluorescent Protein (GFP), Venus (a yellow-fluorescent protein) or mCherry (a red-fluorescent protein) in the template plasmid pCN52. The three plasmids were named pCN52RI, pCN52RI-Venus and pCN52RI-mCherry, respectively. The genes for the fluorescent proteins were transcribed under the promoter of the blaZ gene and were regulated by the proteins BlaR and BlaI, as is the case for the wild-type bla operon.
We transformed separately S. aureus NRS144—a laboratory strain that accepts a foreign gene and harbors neither the bla nor the mec operons—with each of these plasmids. […] When induced, the fluorescent protein is produced and is detected (akin to expression of the resistance genes blaZ or mecA in typical MSSA and MRSA). […] The transformed strains were grown in tryptic soy broth medium for overnight culture and strain maintenance and incubated in cation-adjusted Mueller-Hinton broth medium for inhibitor screening in a 96-well microplate format. The culture without CBAP addition was the negative control. In order to select a desirable reporter construct, we compared the intensity of the fluorescence produced from each construct at the wavelengths given in FIG. 2a using the Cytation-5 multi-mode microplate reader. Among the three constructs, pCN52RI-Venus produced the best fluorescence intensity and pCN52RI-mCherry was the second best (FIG. 4).
(§1) The collection of the 100 compounds from the in-silico search was screened against S. aureus NRS144pCN52RI-Venus. The screening strategy was as follows. Bacteria grown to OD600 of 0.25 were exposed concurrently to CBAP (10 mg·L^−1) and the test compound (100 mg·L^−1). Fluorescence was recorded after two hours of incubation. OD600 values were also recorded to identify compounds with inherent antibacterial activity. Compound 1 (Chart 1) emerged—82% diminished fluorescence as an indication of the extent of BlaR inhibition—as a suitable template for structure elaboration. This effort led to the synthesis of several dozen benzimidazole and imidazole compounds. The progression of the iterative design is depicted in Chart 1 for four compounds, culminating in 4. […] The X-ray structures for the complexes of compounds 2 (non-covalent) and 4 (covalent) with the BlaR sensor domain are shown respectively in FIG. 2b (2.0 Å resolution) and FIG. 2c (1.97 Å resolution). Compound 4 makes a covalent bond with the catalytic Ser389 and creates a network of hydrogen bonds with the BlaR active site (FIG. 2c).
(§2) Fluorescent assay for screening of BlaR potential inhibitors. A 3-mL portion of lysogeny broth (LB) medium was inoculated with NRS144pCN52RI Venus from frozen stocks and grown overnight at 37° C. The overnight culture was then diluted 1:150 fold with fresh LB containing […] of erythromycin and incubated at 37° C. to an OD600 of 0.3, at which point fluorescence was induced by the addition of CBAP to a final concentration of 10 μg·mL^−1. The culture was aliquoted (99 L) into 96-well plate and 1 L of inhibitor solution (1 mg·mL^−1 in DMSO) was added to each well. Negative control (DMSO without CBAP) and positive control (CBAP without inhibitor) were included. The plate was incubated at 30° C. for 2 h with intermittent shaking. Fluorescence and OD600 measurements were taken by a Cytation-5 multimode microplate reader. Percent inhibition of BlaR and bacterial growth were calculated using absorbance unit (AU) and OD600 values of each sample entered into this formula: […]

Sequence of BlaR (P18357 whole entry): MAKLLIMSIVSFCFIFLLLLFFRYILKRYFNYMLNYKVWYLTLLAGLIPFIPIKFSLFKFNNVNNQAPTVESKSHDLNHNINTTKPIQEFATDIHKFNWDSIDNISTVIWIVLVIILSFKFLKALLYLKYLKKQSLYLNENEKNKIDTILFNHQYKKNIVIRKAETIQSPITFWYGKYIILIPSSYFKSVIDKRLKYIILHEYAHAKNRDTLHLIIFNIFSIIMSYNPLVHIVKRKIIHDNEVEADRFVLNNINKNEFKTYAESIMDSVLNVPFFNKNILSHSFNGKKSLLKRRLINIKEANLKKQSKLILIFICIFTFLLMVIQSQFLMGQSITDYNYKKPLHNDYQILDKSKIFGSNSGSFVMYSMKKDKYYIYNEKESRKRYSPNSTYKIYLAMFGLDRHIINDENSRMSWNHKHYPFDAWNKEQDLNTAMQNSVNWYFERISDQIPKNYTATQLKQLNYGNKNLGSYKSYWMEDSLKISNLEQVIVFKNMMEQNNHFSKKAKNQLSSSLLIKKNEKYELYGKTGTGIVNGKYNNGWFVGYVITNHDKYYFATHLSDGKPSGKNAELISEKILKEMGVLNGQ

Structure (SMILES) | % Inhibition of BlaR
O=S(=O)(O)c1nc2ccc(CO)cc2n1Cc1ccc(C(F)(F)F)cc1C(F)(F)F [Compound 18] | 97%
N#Cc1ccc2nc(N)n(Cc3ccc(C(F)(F)F)cc3C(F)(F)F)c2c1 [Compound 19] | 55%
Nc1nc2ccc(CO)cc2n1Cc1ccc(C(F)(F)F)cc1C(F)(F)F [Compound 21] | 89%
O=C(/C=C/c1ccc(F)cc1)NCc1ccc2nc(S)n(Cc3ccc(C(F)(F)F)cc3C(F)(F)F)c2c1 [Compound 23] | 76%
O=C(/C=C/c1ccc(Cl)cc1Cl)NCc1ccc2nc(S)n(Cc3ccc(C(F)(F)F)cc3C(F)(F)F)c2c1 [Compound 25] | 75%
O=C(/C=C/c1ccc(F)cc1)NCc1ccc2nc(S(=O)(=O)O)n(Cc3ccc(C(F)(F)F)cc3C(F)(F)F)c2c1 [Compound 26] | 99%
O=C(/C=C/c1ccc(C(F)(F)F)cc1F)NCc1ccc2nc(S)n(Cc3ccc(C(F)(F)F)cc3C(F)(F)F)c2c1 [Compound 27] | 79%
O=C(/C=C/c1ccc(C(F)(F)F)cc1F)NCc1ccc2nc(S(=O)(=O)O)n(Cc3ccc(C(F)(F)F)cc3C(F)(F)F)c2c1 [Compound 28] | 92%
O=C(CCc1ccc(F)cc1)NCc1ccc2nc(S)n(Cc3ccc(C(F)(F)F)cc3C(F)(F)F)c2c1 [Compound 29] | 59%
O=C(CCc1ccc(F)cc1)NCc1ccc2nc(S(=O)(=O)O)n(Cc3ccc(C(F)(F)F)cc3C(F)(F)F)c2c1 [Compound 30] | 86%
C[N+]12CC(=O)O[B-]1(CSc1nc3ccc(C#N)cc3n1Cc1ccc(C(F)(F)F)cc1C(F)(F)F)OC(=O)C2 (stereo not drawn) [Compound 32] | 93%
COC(=O)c1ccc2nc(SCB(O)O)n(Cc3ccc(C(F)(F)F)cc3C(F)(F)F)c2c1 [Compound 33] | 95%
O=C(O)c1ccc2nc(SCB(O)O)n(Cc3ccc(C(F)(F)F)cc3C(F)(F)F)c2c1 [Compound 34] | 92%
COC(=O)c1ccc2nc(SC[B-]34OC(=O)C[N+]3(C)CC(=O)O4)n(Cc3ccc(C(F)(F)F)cc3C(F)(F)F)c2c1 (stereo not drawn) [Compound 35] | 98%
N#CCCSc1nc2ccc(C#N)cc2n1Cc1ccc(C(F)(F)F)cc1C(F)(F)F [Compound 36] | 90%
COC(=O)c1ccc2nc(SCCC#N)n(Cc3ccc(C(F)(F)F)cc3C(F)(F)F)c2c1 [Compound 38] | 89%
COC(=O)c1ccc2nc(SCCCC#N)n(Cc3ccc(C(F)(F)F)cc3C(F)(F)F)c2c1 [Compound 39] | 92%
OCc1nc2ccccc2n1Cc1ccc(C(F)(F)F)cc1C(F)(F)F [Compound 40] | 67%

Structure (SMILES) | % Inhibition of BlaR
FC(F)(F)c1ccc(Cn2c(CBr)nc3ccccc32)c(C(F)(F)F)c1 [Compound 41] | 78%
OB(O)Cc1nc2ccccc2n1Cc1ccc(C(F)(F)F)cc1C(F)(F)F [Compound 42] | 99%
OB(O)CCc1nc2ccccc2n1Cc1ccc(C(F)(F)F)cc1C(F)(F)F [Compound 46] | 0%
NCc1cn(Cc2ccc(C(F)(F)F)cc2C(F)(F)F)c(=S)[nH]1 [Compound 48] | 50%
NSc1nc([C@H](O)[C@H](O)CO)cn1Cc1ccccc1 [Compound 52] | 33%
O=S(=O)(O)c1nccn1Cc1ccc(C(F)(F)F)cc1C(F)(F)F [Compound 54] | 18%
N#Cc1cn(Cc2ccc(C(F)(F)F)cc2C(F)(F)F)cn1 [Compound 55] | 0%
O=S(=O)(Cl)c1nc(CO)cn1Cc1ccc(C(F)(F)F)cc1C(F)(F)F [Compound 57] | 83%
OCc1cn(Cc2ccc(C(F)(F)F)cc2C(F)(F)F)c(Cl)n1 [Compound 58] | 43%
O=S(=O)(O)c1nc(CO)cn1Cc1ccc(C(F)(F)F)cc1C(F)(F)F [Compound 60] | 0%
NCc1cn(Cc2ccc(C(F)(F)F)cc2C(F)(F)F)c(S(=O)(=O)O)n1 [Compound 63] | 50%
CC(C)(C)OC(=O)NCc1cn(Cc2ccc(C(F)(F)F)cc2C(F)(F)F)c(S(=O)(=O)O)n1 [Compound 64] | 75%
COc1ccc(CSc2nc(CNC(=O)OCc3ccccc3)cn2Cc2ccc(C(F)(F)F)cc2C(F)(F)F)cc1 [Compound 65] | 19%
O=C(O)c1cn(Cc2ccc(C(F)(F)F)cc2C(F)(F)F)c(S(=O)(=O)O)n1 [Compound 72] | 11%
OCC1NC(=S)N(Cc2ccc(C(F)(F)F)cc2C(F)(F)F)N1 (stereo not drawn) [Compound 77] | 71%
OCc1nn(Cc2ccc(C(F)(F)F)cc2C(F)(F)F)c(=S)[nH]1 [Compound 78] | 70%
OCC1NC(=S)N(c2ccc(C(F)(F)F)cc2)N1 (stereo not drawn) [Compound 79] | 75%

What follows are molecules tested on S. aureus (assay: Potentiation of β-lactams by cyclic boronate β-lactamase inhibitors). Conditions: not given.
Assay type: cell-based, Staphylococcus aureus

Structure (SMILES) | potentiation of the anti-S. aureus activities of MEM, OXA, FOX and CPT
NCCN[C@H]1CC[C@H](CC(=O)N[C@H]2Cc3cccc(C(=O)O)c3OB2O)CC1 [taniborbactam] | no activity
O=C(O)C[C@@H]1CC[C@H](NC(=O)Cc2cccs2)B(O)O1 [vaborbactam] | no activity

The molecules below were run on S. aureus NRS144pCN52RI-Venus (assay: Bacterial growth inhibition (OD600) in the fluorescent screening assay). Conditions: compound at 100 mg/L^−1; OD600 after 2 h.
Assay type: cell-based, Staphylococcus aureus
Method: as §1, §2

Structure (SMILES) | % Inhibition of bacterial growth
O=S(=O)(O)c1nc2ccc(CO)cc2n1Cc1ccc(C(F)(F)F)cc1C(F)(F)F [Compound 18] | 0%
N#Cc1ccc2nc(N)n(Cc3ccc(C(F)(F)F)cc3C(F)(F)F)c2c1 [Compound 19] | 0%
Nc1nc2ccc(CO)cc2n1Cc1ccc(C(F)(F)F)cc1C(F)(F)F [Compound 21] | 0%
O=C(/C=C/c1ccc(F)cc1)NCc1ccc2nc(S)n(Cc3ccc(C(F)(F)F)cc3C(F)(F)F)c2c1 [Compound 23] | 70%
O=C(/C=C/c1ccc(Cl)cc1Cl)NCc1ccc2nc(S)n(Cc3ccc(C(F)(F)F)cc3C(F)(F)F)c2c1 [Compound 25] | 50%
O=C(/C=C/c1ccc(F)cc1)NCc1ccc2nc(S(=O)(=O)O)n(Cc3ccc(C(F)(F)F)cc3C(F)(F)F)c2c1 [Compound 26] | 100%
O=C(/C=C/c1ccc(C(F)(F)F)cc1F)NCc1ccc2nc(S)n(Cc3ccc(C(F)(F)F)cc3C(F)(F)F)c2c1 [Compound 27] | 55%
O=C(/C=C/c1ccc(C(F)(F)F)cc1F)NCc1ccc2nc(S(=O)(=O)O)n(Cc3ccc(C(F)(F)F)cc3C(F)(F)F)c2c1 [Compound 28] | 100%
O=C(CCc1ccc(F)cc1)NCc1ccc2nc(S)n(Cc3ccc(C(F)(F)F)cc3C(F)(F)F)c2c1 [Compound 29] | 0%
O=C(CCc1ccc(F)cc1)NCc1ccc2nc(S(=O)(=O)O)n(Cc3ccc(C(F)(F)F)cc3C(F)(F)F)c2c1 [Compound 30] | 0%
C[N+]12CC(=O)O[B-]1(CSc1nc3ccc(C#N)cc3n1Cc1ccc(C(F)(F)F)cc1C(F)(F)F)OC(=O)C2 (stereo not drawn) [Compound 32] | 20%
COC(=O)c1ccc2nc(SCB(O)O)n(Cc3ccc(C(F)(F)F)cc3C(F)(F)F)c2c1 [Compound 33] | 13%
O=C(O)c1ccc2nc(SCB(O)O)n(Cc3ccc(C(F)(F)F)cc3C(F)(F)F)c2c1 [Compound 34] | 18%
COC(=O)c1ccc2nc(SC[B-]34OC(=O)C[N+]3(C)CC(=O)O4)n(Cc3ccc(C(F)(F)F)cc3C(F)(F)F)c2c1 (stereo not drawn) [Compound 35] | 33%
N#CCCSc1nc2ccc(C#N)cc2n1Cc1ccc(C(F)(F)F)cc1C(F)(F)F [Compound 36] | 40%
COC(=O)c1ccc2nc(SCCC#N)n(Cc3ccc(C(F)(F)F)cc3C(F)(F)F)c2c1 [Compound 38] | 16%
COC(=O)c1ccc2nc(SCCCC#N)n(Cc3ccc(C(F)(F)F)cc3C(F)(F)F)c2c1 [Compound 39] | 25%
OCc1nc2ccccc2n1Cc1ccc(C(F)(F)F)cc1C(F)(F)F [Compound 40] | 25%

Structure (SMILES) | % Inhibition of bacterial growth
FC(F)(F)c1ccc(Cn2c(CBr)nc3ccccc32)c(C(F)(F)F)c1 [Compound 41] | 36%
OB(O)Cc1nc2ccccc2n1Cc1ccc(C(F)(F)F)cc1C(F)(F)F [Compound 42] | 82%
OB(O)CCc1nc2ccccc2n1Cc1ccc(C(F)(F)F)cc1C(F)(F)F [Compound 46] | 49%
NCc1cn(Cc2ccc(C(F)(F)F)cc2C(F)(F)F)c(=S)[nH]1 [Compound 48] | 90%
NSc1nc([C@H](O)[C@H](O)CO)cn1Cc1ccccc1 [Compound 52] | 0%
O=S(=O)(O)c1nccn1Cc1ccc(C(F)(F)F)cc1C(F)(F)F [Compound 54] | 0%
N#Cc1cn(Cc2ccc(C(F)(F)F)cc2C(F)(F)F)cn1 [Compound 55] | 0%
O=S(=O)(Cl)c1nc(CO)cn1Cc1ccc(C(F)(F)F)cc1C(F)(F)F [Compound 57] | 0%
OCc1cn(Cc2ccc(C(F)(F)F)cc2C(F)(F)F)c(Cl)n1 [Compound 58] | 0%
O=S(=O)(O)c1nc(CO)cn1Cc1ccc(C(F)(F)F)cc1C(F)(F)F [Compound 60] | 0%
NCc1cn(Cc2ccc(C(F)(F)F)cc2C(F)(F)F)c(S(=O)(=O)O)n1 [Compound 63] | 18%
CC(C)(C)OC(=O)NCc1cn(Cc2ccc(C(F)(F)F)cc2C(F)(F)F)c(S(=O)(=O)O)n1 [Compound 64] | 40%
COc1ccc(CSc2nc(CNC(=O)OCc3ccccc3)cn2Cc2ccc(C(F)(F)F)cc2C(F)(F)F)cc1 [Compound 65] | 0%
O=C(O)c1cn(Cc2ccc(C(F)(F)F)cc2C(F)(F)F)c(S(=O)(=O)O)n1 [Compound 72] | 0%
OCC1NC(=S)N(Cc2ccc(C(F)(F)F)cc2C(F)(F)F)N1 (stereo not drawn) [Compound 77] | 30%
OCc1nn(Cc2ccc(C(F)(F)F)cc2C(F)(F)F)c(=S)[nH]1 [Compound 78] | 56%
OCC1NC(=S)N(c2ccc(C(F)(F)F)cc2)N1 (stereo not drawn) [Compound 79] | 65%

Reference: patent US20260284011A1, “COMPOUNDS FOR RESTORING SUSCEPTIBILITY TO BETA-LACTAM ANTIBIOTICS” (UNIVERSITY OF NOTRE DAME DU LAC, priority 2023, published 2026)
